Experimental data reported in patent publication US7153964B2, “Pyrimidine compounds” (AstraZeneca AB, priority 2000, dated 2006).

Molecular target: T1, CDK2 (Homo sapiens, UniProt P24941)
T1 construct: made in house; host or cells: Sf21 insect cells (stated for the CDK2/Cyclin E option; by analogy to CDK4/Cyclin D1 baculovirus co-infection)
Experiment: CDK2 inhibition assay (in vitro kinase SPA, by analogy to the CDK4 assay)
Type: biochemical
Details: read-out: CDK2 inhibitory activity IC50
Description: The compounds were tested in an in vitro kinase assay in 96 well format using Scintillation Proximity Assay (SPA—obtained from Amersham) for measuring incorporation of [γ-33-P]-Adenosine Triphosphate into a test substrate (GST-Retinoblastoma). In each well was placed the compound to be tested (diluted in DMSO and water to correct concentrations) and in control wells either p16 as an inhibitor control or DMSO as a positive control.
Approximately 0.5 μl of CDK4/Cyclin D1 partially-purified enzyme (amount dependent on enzyme activity) diluted in 25 μl incubation buffer was added to each well then 20 μl of GST-Rb/ATP/ATP33 mixture (containing 0.5 μg GST-Rb and 0.2 μM ATP and 0.14 μCi [γ-33-P]-Adenosine Triphosphate), and the resulting mixture shaken gently, then incubated at room temperature for 60 minutes.
To each well was then added 150 μL stop solution containing (0.8 mg/well of Protein A-PVT SPA bead (Amersham)), 20 pM/well of Anti-Glutathione Transferase, Rabbit IgG (obtained from Molecular Probes), 61 mM EDTA and 50 mM HEPES pH 7.5 containing 0.05% sodium azide.
The plates were sealed with Topseal-S plate sealers, left for two hours then spun at 2500 rpm, 1124×g., for 5 minutes. The plates were read on a Topcount for 30 seconds per well. […]

Structure (SMILES): N#Cc1ccccc1Nc1nc(Nc2ccc(S(N)(=O)=O)cc2)ncc1Cl [Example 23, 2-(4-Sulphamoylanilino)-4-(2-cyanoanilino)-5-chloropyrimidine]
- IC50: 347 nM
